Here are results for 18 molecules from patent publication US20250134871A1, “UPR MODULATORS TO TREAT HEARING LOSS” (JACARANDA BIOSCIENCES, INC., priority 2021, published 2025).

One test concerns CHOP. In words: ER stress induction in HEK cells treated with compounds (CHOP mRNA, qPCR). In kind it is cell-based. To be noted: HEK 293 cells, 0.5 μM thapsigargin and 0.1 to 5.0 μM of each drug for 2 hours; CHOP mRNA by qPCR, ΔΔCt vs GAPDH. The procedure: HEK 293 cells were cultured in DMEM with 10% FBS, Pen/Strep in 5% CO2, at 37° C. in incubator. Cells were split and seeded at approximately 2×10^4 cells in each well of 96-well plate one day before treatment. Cells were grown in good shape and passaged one or two times before testing.
Cells were treated with 0.5 μM thapsigargin and 0.1 to 5.0 μM of each drug for 2 hours. The cells were then harvested, pelleted and treated to ready for testing mRNA abundance for specific UPR genes from cells in the PCR reaction using the TaqMan™ Gene Expression Cells-to-CT™ Kit (Thermo Fisher). Prescreened primers were ordered from Bio-Rad. The gene tested is CHOP, (the C/EBP Homologous Protein). These markers were compared against GAPDH. The qPCR system we used was CFX 384 Real time (Bio-Rad). Samples were measured in triplicates and relative quantification, by the ΔΔCt-method, using GAPDH as reference. The biological results are summarized in Table 1 where A represents a greater than 50% reduction in CHOP signal in compound-treated versus untreated cells, B represents a 20% to 50% reduction in CHOP signal, and C represents a 1% to 20% reduction in CHOP signal.
A general note: Real-time PCR tracks product formation cycle by cycle.

The test system of test [1] is hearing loss from noise exposure. To be noted: cited from earlier work.

Consider `Cc1ccc(OCC(=O)Nc2cnc(NC(=O)COc3ccc(C)cc3)c(Br)c2)cc1` [Compound B6, 2-(4-Methylphenoxy)-N-[5-bromo-6-[[2-(4-methylphenoxy)acetyl]amino]pyridin-3-yl]acetamide], for which the CHOP reduction result with CHOP was “C (C represents a 1% to 20% reduction in CHOP signal)”.
Same read-out and setting: the result for `CC(C)(C)c1ccc(OCC(=O)Nc2ccc(NC(=O)COc3ccc(C(C)(C)C)cc3)c(Cl)c2)cc1` [Compound C8, N,N′-2-Chlorobenzene-1,4-diylbis[2-(4-tert-butylphenoxy)acetamide]] reads “B (B represents a 20% to 50% reduction in CHOP signal)”.
Turning to `O=C(COc1ccccc1)Nc1cnc(NC(=O)COc2ccccc2)c(Br)c1` [Compound B4, 2-Phenoxy-N-[5-bromo-6-[[2-phenoxyacetyl]amino]pyridin-3-yl]acetamide], the CHOP reduction entry in the test on CHOP is recorded as “C (C represents a 1% to 20% reduction in CHOP signal)”.
Regarding `CC(C)(C)c1ccc(OCC(=O)Nc2cnc(NC(=O)COc3ccc(C(C)(C)C)cc3)c(Br)c2)cc1` [Compound B7, 2-(4-tert-Butylphenoxy)-N-[5-bromo-6-[[2-(4-tert-butylphenoxy)acetyl]amino]pyridin-3-yl]acetamide], in the test with CHOP, the CHOP reduction result is recorded as “B (B represents a 20% to 50% reduction in CHOP signal)”.
On the same count and under the same terms, to `O=C(COc1ccccc1)Nc1ccc(NC(=O)COc2ccccc2)cc1` [Compound A1, 2-Phenoxy-N-[4-(2-phenoxyacetylamino)phenyl]acetamide] belongs “A (A represents a greater than 50% reduction in CHOP signal in compound-treated versus untreated cells)”; to `CC(C)(C)c1ccc(OCC(=O)Nc2ccc(NC(=O)COc3ccc(C(C)(C)C)cc3)cc2)cc1` [Compound A3, N,N′-Benzene-1,4-diylbis [2-(4-tert-butylphenoxy)acetamide]], “C (C represents a 1% to 20% reduction in CHOP signal)”.
`Cc1ccc(OCC(=O)Nc2ccc(NC(=O)COc3ccc(C)cc3)nc2)cc1` [Compound B3, 2-(4-Methylphenoxy)-N-[6-[[2-(4-methylphenoxy)acetyl]amino]pyridin-3-yl]acetamide]: the CHOP reduction result in the test on CHOP is on record as “B (B represents a 20% to 50% reduction in CHOP signal)”.
Same read-out and setting: to `O=C(COc1ccc(Cl)cc1)Nc1ccc(NC(=O)COc2ccc(Cl)cc2)c(Cl)c1` [Compound C6, 2-(4-Chlorophenoxy)-N-[2-chloro-4-[[2-(4-chlorophenoxy)acetyl]amino]phenyl]acetamide] belongs “A (A represents a greater than 50% reduction in CHOP signal in compound-treated versus untreated cells)”.
Consider `O=C(COc1ccc(Cl)cc1)NC1CCC(NC(=O)COc2ccc(Cl)cc2)CC1` (stereo not shown) [ISRIB], for which the “cochlear synaptopathy after a transient threshold shift” value in test [1] (after a transient threshold shift) was “can prevent cochlear synatopathy after a transient threshold shift”. Moreover, in test [1] (mice, noise exposure), the “hearing loss from noise exposure (permanent threshold shift)” value is given as “can prevent hearing loss in mice from noise exposure”.
As to `Cc1cc(NC(=O)COc2ccc(Cl)cc2)ccc1NC(=O)COc1ccc(Cl)cc1` [Compound C2, 2-(4-Chlorophenoxy)-N-[2-methyl-4-[[2-(4-chlorophenoxy)acetyl]amino]phenyl]acetamide], in the test on CHOP, the CHOP reduction result is “A (A represents a greater than 50% reduction in CHOP signal in compound-treated versus untreated cells)”.
As for `O=C(COc1ccccc1)Nc1ccc(NC(=O)COc2ccccc2)nc1` [Compound B1, 2-Phenoxy-N-[6-[[2-phenoxyacetyl]amino]pyridin-3-yl]acetamide], in the test on CHOP, the CHOP reduction result was “C (C represents a 1% to 20% reduction in CHOP signal)”.
`Cc1cc(NC(=O)COc2ccccc2)ccc1NC(=O)COc1ccccc1` [Compound C1, 2-Phenoxy-N-[2-methyl-4-(2-phenoxyacetylamino)phenyl]acetamide]: in the test with CHOP, the CHOP reduction entry is “B (B represents a 20% to 50% reduction in CHOP signal)”.
For the molecule `O=C(COc1ccccc1)Nc1ccc(NC(=O)COc2ccccc2)c(Cl)c1` [Compound C5, 2-Phenoxy-N-[2-chloro-4-(2-phenoxyacetylamino)phenyl]acetamide], in the test with CHOP, the CHOP reduction entry is recorded as “B (B represents a 20% to 50% reduction in CHOP signal)”.
`Cc1ccc(OCC(=O)Nc2ccc(NC(=O)COc3ccc(C)cc3)cc2)cc1` [Compound A4, N,N′-Benzene-1,4-diylbis [2-(4-methylphenoxy)acetamide]]: the CHOP reduction result in the test on CHOP is given as “C (C represents a 1% to 20% reduction in CHOP signal)”.
Regarding `Cc1ccc(OCC(=O)Nc2ccc(NC(=O)COc3ccc(C)cc3)c(Cl)c2)cc1` [Compound C7, N,N′-2-Chlorobenzene-1,4-diylbis[2-(4-methylphenoxy)acetamide]], in the test on CHOP, the CHOP reduction result was “C (C represents a 1% to 20% reduction in CHOP signal)”.
The same measure, in the same setting: to `O=C(COc1ccc(Cl)cc1)Nc1ccc(NC(=O)COc2ccc(Cl)cc2)nc1` [Compound B2, 2-(4-Chlorophenoxy)-N-[6-[[2-(4-chlorophenoxy)acetyl]amino]pyridin-3-yl]acetamide] belongs “A (A represents a greater than 50% reduction in CHOP signal in compound-treated versus untreated cells)”; to `O=C(COc1ccc(Cl)cc1)Nc1cnc(NC(=O)COc2ccc(Cl)cc2)c(Br)c1` [Compound B5, 2-(4-Chlorophenoxy)-N-[5-bromo-6-[[2-(4-chlorophenoxy)acetyl]amino]pyridin-3-yl]acetamide], “C (C represents a 1% to 20% reduction in CHOP signal)”; to `O=C(COc1ccc(Cl)cc1)Nc1ccc(NC(=O)COc2ccc(Cl)cc2)cc1` [Compound A2, 2-(4-Chlorophenoxy)-N-[4-[[2-(4-chlorophenoxy)acetyl]amino]phenyl]acetamide], “B (B represents a 20% to 50% reduction in CHOP signal)”.
